Experimental data taken from article PMC8921064 (Archives of Toxicology, 2022).
Read-outs that look alike come from different tables or passages of the source.

Experiments:
S. typhimurium TA98 = settings: cited from earlier work
[1] = test system: Salmonella typhimurium TA100; experiment: Reverse mutation assay (Ames test), TA100; settings: for Increase in the number of revertants compared to the concurrent solvent control: TA100, presence of 5% S9-mix, 10–100 µg; for Mutagenicity (conclusion): TA100, positive if more than twofold over control; for His + revertant colonies TA100 without S9-mix: mean ± SD of 3 plates
Description: (§1) Six concentrations of each compound were tested in triplicate in the absence and presence of 5% (v/v) S9-mix prepared from the livers of Aroclor 1254 treated Sprague–Dawley rats. The S9-mix contained 4 mM NADP, 5.8 mM glucose-6-phosphate, 0.1 M sodium phosphate pH 7.4, 8 mM MgCl2, 33 mM KCl and 5% S9 homogenate. Fresh bacterial cultures were prepared overnight to reach 10^9 cells/ml. The following solutions were pre-incubated in a rotating incubator at 70 rpm and 37 °C, and contained either 0.5 ml S9-mix (in case of S9 presence) or 0.5 ml 0.1 M potassium phosphate pH 7.4 (in case of S9 absence), 0.1 ml of a fresh bacterial culture (10^9 cells/ml) of TA98 or TA100, and 10–100 µg test compound. Top agar was melted and heated to 45 °C. After preincubation, the substrate solutions were added to 3 ml of the molten top agar and mixed by vortexing and the top agar mixture was poured onto a minimal glucose agar plate. After solidification of the top agar, the plates were incubated at 37 °C for 48 h. The number of revertant colonies per plate was automatically counted with the Instem Sorcerer Colony Counter (Staffordshire, UK). In the absence of S9-mix, 2-nitrofluorene (NF) and methylmethanesulfonate (MMS) were tested as positive controls for incubations with TA98 and TA100, respectively. In the presence of S9-mix, 2-aminoanthracene (2AA) was tested as a positive control in both TA98 and TA100. DMSO was tested as a solvent control in both tester strains.

[2] = test system: human liver microsomes (HLM); experiment: Human liver microsomal incubation, metabolite formation quantified by UPLC; settings: HLM
Description: (§2) The incubation mixtures were prepared and incubated in glass vials to avoid plastic binding of the substrates. The glass vials were capped to prevent substrate loss due to volatility. After preincubation of the incubation mixture at 37 °C for 1 min, the enzymatic reaction was initiated by adding microsomes to the incubation mixture which was subsequently incubated at 37 °C for 20 min. The reaction was terminated by adding 100 µl ice-cold acetonitrile followed by vortexing. After 5 min centrifugation at 5000 rpm (4000 × g), 4 °C, the supernatant was collected for ultraperformance liquid chromatography (UPLC) analysis. […] Therefore, a diisopropylether (DIPE) extraction of the metabolites was performed after the reaction was stopped by the addition of 20 µl 10% HClO4. To this end, the incubation mixture (total volume of 220 µl) was extracted three times with 1 ml DIPE. Each time, the upper organic layer was collected and the DIPE was subsequently evaporated from the combined organic fractions with a gentle stream of nitrogen. The residues were dissolved in 100 µl methanol and analyzed by UPLC.
(§3) The metabolites formed were analyzed and quantified using an Acquity UPLC system equipped with a photodiode array (PDA) detector (Waters, Milford, MA). The metabolites and their parent compound were separated on a reverse phase Acquity UPLC® BEH C18 column ([…], 1.7 µm, Waters, Milford, MA) and detected at wavelengths ranging from 190 to 400 nm. Eluent A was nano-pure water containing 0.1% trifluoroacetic acid (v/v), and eluent B was acetonitrile containing 0.1% trifluoroacetic acid (v/v). The gradient elution started from 90% A and 10% B applied from 0.0 min to 0.5 min, which was changed to 0% A and 100% B from 0.5 to 15.5 min and then kept at 0% A and 100% B from 15.5 min to 18.5 min, changed back to 90% A and 10% B from 18.5 to 18.6 min and then maintained at the starting conditions from 18.6 min until 22 min. The total run time was 22 min using a flow rate of 0.6 ml/min. The temperature of the column was set at 40 °C and that of the autosampler at 10 °C during the UPLC analysis. The injection volume was 3.5 µl. Metabolites were quantified using their peak area at the wavelength specified in Table 1, using calibration curves of available reference compounds. Metabolites were identified by comparing their retention time (RT) and UV spectrum to those of reference chemicals on UPLC. When reference chemicals were not available, metabolite identification by gas chromatography-triple quadrupole mass spectrometry (GC–MS/MS) was performed. The minor metabolites were identified by elution time and mass spectra both on UPLC and GC–MS/MS, and by comparison with available elution and spectral information from the literature.
(§4) The metabolite concentrations in the microsomal incubation mixtures as quantified by UPLC were used to calculate the rate of the enzymatic conversions in pmol/min/mg microsomal protein. The kinetic parameters KM and Vmax were obtained using a nonlinear regression curve fit applying the Michaelis Menten equation in GraphPad Prism 5 (San Diego, USA). To compare the catalytic efficiency of formation of the different metabolites the intrinsic clearance (Clint) was calculated as Vmax divided by KM.

mouse skin = test system: mouse skin; design: method as in Buening et al. [1979]; LaVoie et al. [1981]; settings: mouse skin painting; ref Buening et al. [1979]; LaVoie et al. [1981]; cited from earlier work
[3] = test system: Salmonella typhimurium TA98; experiment: Reverse mutation assay (Ames test), TA98; settings: for Increase in the number of revertants compared to the concurrent solvent control: TA98, presence of 5% S9-mix, 10–100 µg; for Mutagenicity (conclusion): TA98, positive if more than threefold over control
Description: as §1, with “and 10–100 µg test compound.” left out

[4] = test system: rat liver microsomes (RLM); experiment: Rat liver microsomal incubation, metabolite formation quantified by UPLC; settings: RLM
Description: as §2, §3, §4

S. typhimurium TA100 = settings: cited from earlier work
[5] = ref Katarzyna Rudnicka et al. [2013]

## Cc1cccc2c1ccc1ccccc12 [1-Methylphenanthrene]
S. typhimurium TA98; [5]
  Increase in revertants: 8.4 fold
S. typhimurium TA98; ref LaVoie et al. [1983]
  Increase in revertants: 3.2 fold
[1]
  Increase in the number of revertants compared to the concurrent solvent control: ≤ 6.8 fold
  Mutagenicity (conclusion): showed mutagenicity
[2]; substrate 1-Methylphenanthrene
  Vmax, formation of 1-(Hydroxymethyl) phennathrene RT = 5.55 min: 475.3 ± 13.2 pmol/min/mg microsomal protein
  Vmax, formation of 1-Methylphenanthrol RT = 6.3 min: 14.7 ± 0.8 pmol/min/mg microsomal protein
  Vmax, formation of 1-Methylphenanthrol RT = 6.80 min: 77.3 ± 3.9 pmol/min/mg microsomal protein
  Vmax, formation of Dihydro-1-methylphenanthrene-diol RT = 2.32 min: 27.5 ± 4.6 pmol/min/mg microsomal protein
  Vmax, formation of Dihydro-1-methylphenanthrene-diol RT = 4.35 min: 20.6 ± 0.5 pmol/min/mg microsomal protein
Mouse skin
  Tumor-initiating activity: neither phenanthrene nor its monomethylated analogs
[3]
  Increase in the number of revertants compared to the concurrent solvent control: up to 13 fold
  Mutagenicity (conclusion): showed mutagenicity
[4]; substrate 1-Methylphenanthrene
  Vmax, formation of 1-(Hydroxymethyl) phennathrene RT = 5.55 min: 1926 ± 40.3 pmol/min/mg microsomal protein
  Vmax, formation of 1-Methylphenanthrol RT = 6.80 min: 33.1 ± 2.1 pmol/min/mg microsomal protein
  Vmax, formation of 1-Methylphenanthrol RT = 6.92 min: 24.0 ± 1.6 pmol/min/mg microsomal protein
  Vmax, formation of 1-Methylphenanthrol RT = 7.00 min: 17.3 ± 1.2 pmol/min/mg microsomal protein
  Vmax, formation of 1-Methylphenanthrol RT = 7.29 min: 9.0 ± 0.8 pmol/min/mg microsomal protein
  Vmax, formation of Dihydro-1-methylphenanthrene-diol RT = 3.43 min: 4.2 ± 0.4 pmol/min/mg microsomal protein
  Vmax, formation of Dihydro-1-methylphenanthrene-diol RT = 3.96 min: 5.2 ± 0.3 pmol/min/mg microsomal protein
  Vmax, formation of Dihydro-1-methylphenanthrene-diol RT = 4.35 min: 16.1 ± 1.3 pmol/min/mg microsomal protein
  Vmax, formation of Dihydro-1-methylphenanthrene-diol RT = 4.76 min: 14.0 ± 0.6 pmol/min/mg microsomal protein
S. typhimurium TA100; [5]
  Increase in revertants: 4.1 fold
S. typhimurium TA100; ref LaVoie et al. [1983]
  Increase in revertants: 6.0 fold

## Cc1cc2ccccc2c2ccccc12 [9-Methylphenanthrene]
S. typhimurium TA98; ref LaVoie et al. [1983]
  Increase in revertants: 1.3 fold
[1]; 2 µg/plate
  His + revertant colonies TA100 without S9-mix: 121±7
[1]; 4 µg/plate
  His + revertant colonies TA100 without S9-mix: 109±3
[1]; 10 µg/plate
  His + revertant colonies TA100 without S9-mix: 105±11
[1]; 20 µg/plate
  His + revertant colonies TA100 without S9-mix: 97±20
[1]; 40 µg/plate
  His + revertant colonies TA100 without S9-mix: 59±40
[1]; TA100, absence of S9 mix
  Cytotoxicity at the test doses: showed cytotoxicity
[1]
  Increase in the number of revertants compared to the concurrent solvent control: 1.9 fold
  Mutagenicity (conclusion): indicative of mutagenicity
[1]; TA100, presence of S9-mix
  Increase in the number of revertants relative to the historical control data: 2.0 fold
[2]; substrate 9-Methylphenanthrene
  Vmax, formation of 1,2-Dihydro-9-methylphenanthrene-diol RT = 4.27 min: 15.6 ± 2.4 pmol/min/mg microsomal protein
  Vmax, formation of 3,4-Dihydro-9-methylphenanthrene-diol RT = 2.98 min: 26.1 ± 3.0 pmol/min/mg microsomal protein
  Vmax, formation of 9-(Hydroxymethyl)-phenanthrene RT = 5.6 min: 415.9 ± 43.9 pmol/min/mg microsomal protein
  Vmax, formation of 9-Methylphenanthrol RT = 6.28 min: 27.8 ± 6.7 pmol/min/mg microsomal protein
  Vmax, formation of 9-Methylphenanthrol RT = 6.73 min: 44.9 ± 19.4 pmol/min/mg microsomal protein
Mouse skin
  Tumor-initiating activity: neither phenanthrene nor its monomethylated analogs
[3]
  Increase in the number of revertants compared to the concurrent solvent control: 2.5 fold
  Mutagenicity (conclusion): indicative of mutagenicity
[3]; TA98, presence of S9-mix
  Increase in the number of revertants relative to the historical control data: 3.2 fold
[4]; substrate 9-Methylphenanthrene
  Vmax, formation of 9-(Hydroxymethyl)-phenanthrene RT = 5.6 min: 1543 ± 226.6 pmol/min/mg microsomal protein
  Vmax, formation of 9-Methylphenanthrol RT = 6.73 min: 27.2 ± 5.1 pmol/min/mg microsomal protein
  Vmax, formation of 9-Methylphenanthrol RT = 6.87 min: 124.2 ± 29.2 pmol/min/mg microsomal protein
  Vmax, formation of 9-Methylphenanthrol RT = 7.2 min: 41.4 ± 23.4 pmol/min/mg microsomal protein
  Vmax, formation of 9-Methylphenanthrol RT = 7.25 min: 10.2 ± 1.9 pmol/min/mg microsomal protein
S. typhimurium TA100; ref LaVoie et al. [1983]
  Increase in revertants: 3.0 fold
